# Measured values as given in US9593305B2, “Differentiation of pluripotent stem cells” (Janssen Biotech, Inc., priority 2008, dated 2017).
# Tested on: H1 human embryonic stem cells
# Test: Step-wise differentiation, RT-PCR of differentiation markers (Example 17, Table 15)
# Assay type: cell-based
# Experimental: Stock cultures of human embryonic stem cells (H1 human embryonic stem cell line) were maintained in an undifferentiated, pluripotent state on reduced growth factor […]™ (BD Biosciences; Cat #356231)-coated dishes in MEF conditioned medium supplemented with 8 ng/ml bFGF (PeproTech Inc.; Cat #100-18B) with passage on average every four days. Passage was performed by exposing cell cultures to a solution of 1 mg/ml dispase (Invitrogen; Cat #17105-041) for 5 to 7 minutes at 37° C. followed by rinsing the monolayer with MEF conditioned culture medium and gentle scraping to recover cell clusters. Clusters were centrifuged at low speed to collect a cell pellet and remove residual dispase. Cell clusters were split at a 1:3 or 1:4 ratio for routine maintenance culture or a 1:1 ratio for immediate assay. All human ES cell lines were maintained at passage numbers less than 50 and routinely evaluated for normal karyotype and absence of mycoplasma.
# Cell clusters were evenly resuspended in MEF conditioned medium supplemented with 8 ng/ml bFGF and plated onto reduced growth factor […]™-coated 24-well, black wall culture plates (Arctic White; Cat #AWLS-303012) in volumes of 0.5 ml/well. Daily feeding was conducted by aspirating spent culture medium from each well and replacing with an equal volume of fresh medium. Plates were maintained at 37° C., 5% CO2 throughout assay.
# The assay was initiated by aspirating the culture medium from each well and adding back an aliquot (0.5 ml) of test medium. Test conditions for the first step of differentiation were conducted over a three-day period, feeding daily by aspirating and replacing the medium from each well with fresh test medium. On the first day of assay, 100 ng/ml activin A (PeproTech; Cat #120-14) or 100 ng/ml GDF-8 (R&D Systems, Cat #788-G8) was added to respective assay wells where each growth factor was diluted into RPMI-1640 medium (Invitrogen; Cat #: 22400) with 2% Albumin Bovine Fraction V, Fatty Acid Free (FAF BSA) (MP Biomedicals, Inc; Cat #152401). In some samples, 20 ng/ml Wnt3a (R&D Systems; Cat #1324-WN/CF) was also included. On the second day of assay, 100 ng/mlactivin A or 100 ng/ml GDF-8 was diluted into RPMI-1640 medium supplemented with 2% FAF BSA, omitting Wnt3a from all samples. In some test samples using GDF-8, Wnt3a was replaced with a given concentration of small molecule compound, added only on the first day of definitive endoderm differentiation. […] At the conclusion of the first step of differentiation, cells from some wells were harvested for flow cytometry analysis to evaluate levels of CXCR4, a marker of definitive endoderm formation. Additional wells were harvested for RT-PCR analysis to measure other markers of differentiation.
# At the conclusion of the first step of definitive endoderm differentiation, replicate sets of parallel wells from each treatment group were subjected to further step-wise differentiation. It is important to note that after the first differentiation step, all wells undergoing subsequent culture and differentiation received the same treatment. The protocol for this continuing differentiation is described below.
# Step 2 of the differentiation protocol was carried out over two days. Cells were fed daily by aspirating the medium from each well and replacing with a fresh aliquot (0.5 ml) of DMEM:F12 medium (Invitrogen; Cat #11330-032) containing 2% FAF BSA, 50 ng/ml FGF7 (PeproTech; Cat #100-19), and 250 nM cyclopamine-KAAD (Calbiochem; Cat #239804).
# Step 3 of the differentiation protocol was carried out over four days. […]
# [1] = Step 5, cells harvested at end of step, treatment given during step one
substance,measurement,setting,value
"GDF-8: growth factor GDF-8, also known as myostatin, member of the TGF-β family",RT-PCR CT Values AFP,Step 1,40.0
same,RT-PCR CT Values CD9,Step 1,25.5
same,RT-PCR CT Values CD99,Step 1,25.9
same,RT-PCR CT Values CDH,Step 1,22.3
same,RT-PCR CT Values CDH1,Step 1,25.2
same,RT-PCR CT Values CDX2,Step 1,40.0
same,RT-PCR CT Values CER1,Step 1,20.1
same,RT-PCR CT Values CXCR4,Step 1,24.6
same,RT-PCR CT Values FGF4,Step 1,34.9
same,RT-PCR CT Values FGF17,Step 1,22.1
same,RT-PCR CT Values FOXA2,Step 1,25.9
same,RT-PCR CT Values GAPDH,Step 1,21.6
same,RT-PCR CT Values GATA4,Step 1,27.5
same,RT-PCR CT Values GATA6,Step 1,24.8
same,RT-PCR CT Values GSC,Step 1,24.2
same,RT-PCR CT Values HLXB9,Step 1,25.3
same,RT-PCR CT Values KIT,Step 1,25.4
same,RT-PCR CT Values MIXL1,Step 1,30.6
same,RT-PCR CT Values NANOG,Step 1,25.0
same,RT-PCR CT Values OTX2,Step 1,24.3
same,RT-PCR CT Values POU5F1,Step 1,29.5
same,RT-PCR CT Values SOX7,Step 1,29.8
same,RT-PCR CT Values SOX17,Step 1,25.2
same,RT-PCR CT Values T,Step 1,32.9
same,RT-PCR CT Values ALB,Step 3,28.7
same,RT-PCR CT Values AMY2A,Step 3,30.4
same,RT-PCR CT Values ARX,Step 3,35.3
same,RT-PCR CT Values CDX2,Step 3,23.8
same,RT-PCR CT Values GAPDH,Step 3,18.0
same,RT-PCR CT Values GCG,Step 3,40.0
same,RT-PCR CT Values HNF4A,Step 3,23.6
same,RT-PCR CT Values INS,Step 3,40.0
same,RT-PCR CT Values ISL1,Step 3,28.5
same,RT-PCR CT Values MAFA,Step 3,33.6
same,RT-PCR CT Values MAFB,Step 3,27.2
same,RT-PCR CT Values NEUROD1,Step 3,30.3
same,RT-PCR CT Values NEUROG3,Step 3,28.7
same,RT-PCR CT Values NKX2-2,Step 3,30.3
same,RT-PCR CT Values NKX2-5,Step 3,34.4
same,RT-PCR CT Values NKX6-1,Step 3,35.0
same,RT-PCR CT Values PAX4,Step 3,32.4
same,RT-PCR CT Values PAX6,Step 3,24.8
same,RT-PCR CT Values PDX1,Step 3,25.5
same,RT-PCR CT Values PECAM,Step 3,30.0
same,RT-PCR CT Values POU3F4,Step 3,30.8
same,RT-PCR CT Values PTF1A,Step 3,34.2
same,RT-PCR CT Values SST,Step 3,29.5
same,RT-PCR CT Values ZIC1,Step 3,26.1
same,RT-PCR CT Values ALB,Step 4,25.5
same,RT-PCR CT Values AMY2A,Step 4,29.1
same,RT-PCR CT Values ARX,Step 4,29.8
same,RT-PCR CT Values CDX2,Step 4,24.6
same,RT-PCR CT Values GAPDH,Step 4,18.0
same,RT-PCR CT Values GCG,Step 4,31.3
same,RT-PCR CT Values HNF4A,Step 4,23.8
same,RT-PCR CT Values INS,Step 4,30.9
same,RT-PCR CT Values ISL1,Step 4,27.6
same,RT-PCR CT Values MAFA,Step 4,32.8
same,RT-PCR CT Values MAFB,Step 4,24.1
same,RT-PCR CT Values NEUROD1,Step 4,29.2
same,RT-PCR CT Values NEUROG3,Step 4,28.7
same,RT-PCR CT Values NKX2-2,Step 4,29.0
same,RT-PCR CT Values NKX2-5,Step 4,32.3
same,RT-PCR CT Values NKX6-1,Step 4,31.2
same,RT-PCR CT Values PAX4,Step 4,31.1
same,RT-PCR CT Values PAX6,Step 4,27.9
same,RT-PCR CT Values PDX1,Step 4,26.5
same,RT-PCR CT Values PECAM,Step 4,29.4
same,RT-PCR CT Values POU3F4,Step 4,29.4
same,RT-PCR CT Values PTF1A,Step 4,40.0
same,RT-PCR CT Values SST,Step 4,26.0
same,RT-PCR CT Values ZIC1,Step 4,22.8
same,RT-PCR CT Values ALB,Step 5,20.5
same,RT-PCR CT Values AMY2A,Step 5,28.2
same,RT-PCR CT Values ARX,Step 5,25.2
same,RT-PCR CT Values CDX2,Step 5,24.4
same,RT-PCR CT Values GAPDH,Step 5,17.4
same,RT-PCR CT Values GCG,Step 5,18.1
same,RT-PCR CT Values HNF4A,Step 5,22.9
same,RT-PCR CT Values INS,Step 5,17.7
same,RT-PCR CT Values ISL1,Step 5,24.3
same,RT-PCR CT Values MAFA,Step 5,31.8
same,RT-PCR CT Values MAFB,Step 5,23.3
same,RT-PCR CT Values NEUROD1,Step 5,24.2
same,RT-PCR CT Values NEUROG3,Step 5,30.1
same,RT-PCR CT Values NKX2-2,[1],25.9 CT
same,RT-PCR CT Values NKX2-5,[1],31.4 CT
same,RT-PCR CT Values NKX6-1,[1],26.6 CT
same,RT-PCR CT Values PAX4,[1],29.4 CT
same,RT-PCR CT Values PAX6,[1],26.6 CT
same,RT-PCR CT Values PDX1,[1],25.6 CT
same,RT-PCR CT Values PECAM,[1],29.7 CT
same,RT-PCR CT Values POU3F4,[1],27.8 CT
same,RT-PCR CT Values PTF1A,[1],29.5 CT
same,RT-PCR CT Values SST,[1],21.1 CT
same,RT-PCR CT Values ZIC1,[1],22.5 CT
